Results published in patent US6605424B1, “Method of detecting inhibitors of agonist-specific desensitization” (Duke University, priority 1989, dated 2003).
“And” between values parts separate entries of the source, which are not always exact repeats. Identical values can stand only once.

What was measured:
[1] = test system: β2ARs in intact A431 cells; test: Desensitization of β2ARs in intact A431 cells; assay type: cell-based, human; details: data not shown
[2] = test system: β2ARs in permeabilized A431 cells; test: Phosphorylation of β2ARs in permeabilized A431 cells; assay type: cell-based, human; details: 1 μM heparin
Protocol: FIG. 8. Phosphorylation of β2ARs in permeabilized A431 cells. […] FIG. 8A: Autoradiogram obtained after a 10-day exposure at −70° C. FIG. 8B: Transverse densitometric scan of the autoradiogram.
β2ARs in permeabilized A431 cells were phosphorylated as follows. Permeabilized cells (4×10^8) in 10 ml of KG-A buffer containing 1 mCi (1 Ci=37 GBq) of [γ-^32P]ATP were incubated with or without 1 μM (−)-isoproterenol (and other compounds as indicated) for 10 min at 37° C. All buffers used in these experiments contained 5 μg of soybean tryspin inhibitor, 5 μg of leupeptin, and 10 μg of benzamidine per ml and 0.1 mM phenylmethylsulfonyl fluoride. […] After three identical washing steps, crude membranes were prepared as above.
Aliquots of the samples (≈60 fmol of β2ARs) were desalted over Sephadex G-50 and incubated for 2 hr at 20° C. with 200 pM of the ligand with or without 10 μM alprenolol. Free ligand was removed by desalting as above, and the samples were irradiated with UV light for 3 min. The samples were loaded on the same gel as the samples described above.

[3] = test system: permeabilized A431 cells; test: Accumulation of [32P]cAMP in permeabilized cells; assay type: cell-based, human; details: up to 1 μM; presence or absence of isoproterenol
[4] = test system: β2ARs in permeabilized A431 cells; test: Desensitization of β2ARs in permeabilized A431 cells; assay type: cell-based, human
Protocol: Permeabilization of cells was accomplished as follows. Human epidermoid carcinoma A431 cells were grown to about 95% confluence in Dulbecco's modified Eagle's medium supplemented with 10% fetal calf serum. Cells were harvested with collagenase, washed three times with calcium-free phosphate-buffered saline (PBS), then washed twice in 150 mM potassium glutamate/10 mM Hepes/5 mM EGTA/7 mM MgCl2, pH 7.1 (KG buffer), and finally resuspended in KG buffer supplemented with 5 mM glucose and 2 mM ATP (KG-A buffer) at a density of 4×10^7 cells per ml.
At 4×10^7 cells per ml, about 0.015% digitonin was necessary to achieve permeabilization of >95% cells as assessed by staining with trypan blue. In all experiments, digitonin was added stepwise until >95% of the cells were trypan blue positive.

[5] = biological target: T1, βAR kinase (Bos taurus, UniProt P21146); test: βAR kinase inhibition with the βAR as substrate (Example I, data not shown); assay type: biochemical, bovine
T1 construct: βAR kinase was purified from bovine cerebral cortex; from tissue; host or cells: bovine cerebral cortex
T1 sequence (P21146 1-689): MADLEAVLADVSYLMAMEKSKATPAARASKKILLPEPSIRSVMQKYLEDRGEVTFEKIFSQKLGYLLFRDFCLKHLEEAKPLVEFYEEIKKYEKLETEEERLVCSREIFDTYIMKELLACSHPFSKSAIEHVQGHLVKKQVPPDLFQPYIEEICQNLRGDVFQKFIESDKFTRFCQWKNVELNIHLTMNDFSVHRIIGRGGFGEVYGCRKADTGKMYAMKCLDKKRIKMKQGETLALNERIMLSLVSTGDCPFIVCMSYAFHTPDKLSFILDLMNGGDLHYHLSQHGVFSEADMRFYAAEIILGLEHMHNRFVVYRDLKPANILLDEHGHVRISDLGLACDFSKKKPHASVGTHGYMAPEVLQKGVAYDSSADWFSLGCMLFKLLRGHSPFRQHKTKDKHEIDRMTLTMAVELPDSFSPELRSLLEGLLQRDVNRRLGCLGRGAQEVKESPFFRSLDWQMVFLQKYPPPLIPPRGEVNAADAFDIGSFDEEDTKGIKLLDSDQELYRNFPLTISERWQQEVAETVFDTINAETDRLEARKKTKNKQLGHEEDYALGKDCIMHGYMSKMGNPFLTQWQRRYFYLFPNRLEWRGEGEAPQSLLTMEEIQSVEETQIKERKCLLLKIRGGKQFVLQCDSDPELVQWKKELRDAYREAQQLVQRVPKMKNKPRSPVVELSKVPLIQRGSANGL
Description: βAR kinase phosphorylates the β2AR, the α2-adrenergic receptor, and rhodopsin in a stimulus-dependent fashion. Rhodopsin was utilized as the substrate in these experiments because of its ease of isolation. However, the inhibitory effects of polyanions observed with βAR kinase-catalyzed phosphorylation of rhodopsin have also been observed using reconstituted β2AR as the substrate.

[6] = biological target: T1, βAR kinase; test: Phosphorylation of rhodopsin (urea-treated rod outer segments) by βAR kinase; assay type: biochemical, bovine

- IC50 [5]: ~30 nM
- type of inhibition with respect to ATP ([6]; ATP 33 to 100 μM): mixed type inhibitor
- type of inhibition with respect to rhodopsin ([6]; rhodopsin 3 to 20 μM): competitive inhibitor
Substance: heparin
- effect on desensitization in intact cells [1]: Neither compound affected desensitization
- effect on basal phosphorylation of β2ARs [2]: not affecting basal phosphorylation
- reduction of isoproterenol-induced phosphorylation of β2ARs ([2]; 1 μM isoproterenol, 10 min, three experiments): 50-80%
- effect on [32P]cAMP formation [3]: did not reduce
- Inhibition of Desensitization, % ([4]; 0.1 μM): 102 ± 16%
- effect on time course of desensitization ([4]; 100 nM heparin, 1 μM (−)-isoproterenol): almost completely abolished
- IC50 ([4]; 1 μM (−)-isoproterenol, 10 min, 37° C., read-out: IC50, inhibition of desensitization): 21 nM and 20 nM
- extent of inhibition of desensitization ([4]; at concentrations above 100 nM): virtually complete
